These results are taken from PubChem BioAssay AID1645848.

In brackets after ≈: the same amount, converted by molar mass. Several values for one entry are separate records, joined by “and”; a condition that tells them apart may be missing. Equal values may be shown once.

The conditions of this data set: buffer; pH 7.4; 6.0 h; 150.0 µM.

One may read the solubility (kinetic) as solubility judged after dilution from a stock solution rather than from solid. In the case of `O=C1CCCc2cc(S(=O)(=O)Nc3cnccc3C(=O)Nc3nc(-c4ccccc4)cs3)ccc2N1`, the solubility (kinetic) was 62.9 µg/mL (≈ 121 µM). As for `Cc1ccccc1S(=O)(=O)Nc1cnccc1C(=O)Nc1nc(-c2ccccc2)cs1`, the figure is 49.9 µg/mL (≈ 111 µM); as for `CN(C)c1ccc2cc(C(=O)N[C@@H](CCCN=C(N)CCl)C(=O)NCc3ccccc3)ccc2c1`, 52.4 µg/mL (≈ 106 µM). As for `COc1cc([C@@H](CC(=O)O)c2ccc(C)c(CN3C[C@@H](C)Oc4ccccc4S3(=O)=O)c2)cc2nnn(C)c12`, the figure is > 81 µg/mL; as for `O=C(NC1CCCc2c1cnn2-c1cccc(O)c1)c1ccccn1` (stereo not drawn), 40 µg/mL (≈ 120 µM); as for `Cc1cccc(-c2noc([C@@H]3Cc4nc[nH]c4CN3C(=O)CC(C)(C)CC(=O)O)n2)c1`, > 63 µg/mL.

As to `COC[C@@H]1CN(C(=O)c2nn(C)c3ccccc23)C[C@H]1c1nc(C)no1`, the kinetic solubility is > 100 µg/mL. Next, `NS(=O)(=O)c1ccc(Cc2c(-c3cccc(-c4ccccc4)c3)nn(-c3nc(C(=O)O)cs3)c2CC2CC2)cc1`: > 84 µg/mL. Compound `CC(C)(C)CC(C)(C)c1ccc(O)cc1` yielded a solubility (kinetic) of 2.09 µg/mL (≈ 10.1 µM). In the case of `COc1ccc(-c2ccc3nc(-c4ccc(SC)cc4)oc3c2)c(OC)c1OC`, the kinetic solubility is < 1 µg/mL. `Fc1cc(Nc2nc(-c3ccncc3)nc3ccccc23)ccc1-c1cccnc1`: the solubility (kinetic) was < 1 µg/mL. For `CN=C1CN=C(c2ccc[nH]2)c2cc(Cl)ccc2N1`, the kinetic solubility is 10.8 µg/mL and 28.3 µg/mL. In the case of `Cc1ccnc(NC(=O)C2CC(=O)N(c3n[nH]c4cc(Br)ccc34)C2)c1` (stereo not drawn), the solubility (kinetic) is < 1 µg/mL. As for `CC(C)(C)c1ccc(C(=O)Nc2ccc3c(c2)CCCN3C(=O)c2cccs2)cc1`, the figure is < 1 µg/mL; as for `CS(=O)(=O)c1cccc(-c2csc(N3CCC(C(N)=O)CC3)n2)c1`, 11.7 µg/mL (≈ 32 µM); as for `Cc1ccccc1C(C(=O)NC1CCCCC1)N(C(=O)Cn1ccnc1C)c1cccc(F)c1` (stereo not drawn), 3.13 µg/mL (≈ 6.76 µM). As for `Cc1sc(NC(=O)Cc2ccc3c(c2)OCO3)nc1-c1ccc2c(c1)CCN2C(=O)c1ccccc1C(F)(F)F`, the solubility (kinetic) is < 1 µg/mL.

For `O=c1ncn2nc(Sc3ccc(F)cc3F)ccc2c1-c1c(Cl)cccc1Cl`, the kinetic solubility was > 100 µg/mL. Take `Fc1cc(Nc2nc(-c3ccncc3)nc3ccccc23)ccc1N1CCCC1`: the kinetic solubility is < 1 µg/mL. On to `Fc1ccc(-c2csc3ncnc(Sc4nnnn4C4CC4)c23)cc1`, for which the kinetic solubility is 2.91 µg/mL (≈ 7.85 µM). `CC(C)(C)OC(=O)N[C@@H](Cc1ccc(O[S+](=O)([O-])c2cccc3cnccc23)cc1)C(=O)Nc1ccc(-c2ccccc2)cc1`: the kinetic solubility is < 1 µg/mL.

In the case of `COc1ccc(-c2csc(N3CCC(C(N)=O)CC3)n2)cc1`, the solubility (kinetic) was > 47 µg/mL.

Consider `CCn1nnnc1Sc1ncnc2scc(-c3ccc(C)cc3)c12`, for which the kinetic solubility is 3.32 µg/mL (≈ 9.35 µM). Regarding `N[C@@H]1CN(c2c(F)cc3c(=O)c(C(=O)O)cn([C@@H]4C[C@@H]4F)c3c2Cl)CC12CC2`, the solubility (kinetic) was > 60 µg/mL. Compound `CC(=O)c1ccc(N2CCN(S(=O)(=O)c3ccc4[nH]c(=O)[nH]c4c3)CC2)cc1` returned a kinetic solubility of 1.19 µg/mL (≈ 2.97 µM). For the compound `CN1CCN(c2cc(-c3nc(Nc4ccc(F)c(F)c4)c4ccccc4n3)ccn2)CC1`, the kinetic solubility was < 1 µg/mL. Consider `NC(=O)c1cccc(-c2cc(Nc3ccc(OC(F)(F)F)cc3)ncn2)c1`, for which the kinetic solubility was < 1 µg/mL. Consider `Oc1ccc(C(=S)N2CCN(c3cccc(Cl)c3)CC2)cc1`, for which the solubility (kinetic) was < 1 µg/mL.

Regarding `CCCCn1cnc2cc(NC(=O)c3cc(OC)c(OC)c(OC)c3)ccc21`, the kinetic solubility was 48.1 µg/mL (≈ 125 µM). In the case of `COc1cccc(CNc2ccc(S(=O)(=O)Nc3nc(C)c(C)s3)cc2)c1O`, the kinetic solubility was found to be 1.83 µg/mL (≈ 4.35 µM). In the case of `Cc1cc(NS(=O)(=O)c2ccc(N(C)C(=O)Cc3ccc(Cl)c(Cl)c3)cc2)no1`, the solubility (kinetic) was > 67 µg/mL. For `CCOc1ccc(NC(=O)c2nc(S(=O)(=O)Cc3ccccc3F)ncc2Cl)cc1`, the kinetic solubility is < 1 µg/mL.

For `O=[S+]([O-])(Nc1ccc2ccccc2c1)c1ccc(NCc2ccc(Cl)cc2O)cc1`, the kinetic solubility is < 1 µg/mL. On to `CCOC(=O)c1ccnc2cc(C(OCCN3CCCCC3)c3ccccc3Cl)sc12` (stereo not drawn), for which the kinetic solubility was 56.3 µg/mL (≈ 123 µM). On to `CC(C)c1ccccc1-c1ncc(F)c(NCc2ccc(-c3ccn[nH]3)cc2)n1`, for which the kinetic solubility was < 1 µg/mL.

Regarding `Cc1ccc(-c2csc(Nc3ccc(S(=O)(=O)Nc4nccs4)cc3)n2)cc1C`, the kinetic solubility was < 1 µg/mL. Next, `CC(=O)N1CCc2cc(S(=O)(=O)NCCC3=CCCCC3)ccc21`: 4.37 µg/mL (≈ 12.6 µM).

For the compound `CC(=O)c1c(C)oc2ccc(N(C(=O)Oc3ccccc3)S(=O)(=O)c3ccccc3)cc12`, the solubility (kinetic) is < 1 µg/mL. For `CSc1ccc(C(=O)c2[nH]c(=O)[nH]c2C)cc1`, the solubility (kinetic) is > 37 µg/mL. With `CCOC(=O)c1cc(C)sc1NC(=O)c1ccc(Cl)s1`, the solubility (kinetic) is < 1 µg/mL. Take `Fc1cc(Nc2nc(-c3ccncc3)nc3ccccc23)ccc1-c1cccc(C(F)(F)F)c1`: the kinetic solubility is < 1 µg/mL. As to `O=C(CSc1ccccc1)Nc1nnc(COc2ccc(Cl)cc2)s1`, the kinetic solubility was < 1 µg/mL. As to `Cn1nnnc1SCCCNCc1cccc(OCc2ccccc2Cl)c1`, the kinetic solubility was > 60 µg/mL. `CC1CCN(S(=O)(=O)c2ccc3c(ccc(=O)n3CC(=O)NCc3ccc(Cl)cc3)c2)CC1`: the kinetic solubility is < 1 µg/mL. With `COc1ncccc1-c1cc2c(ccn2CC2CCN([S+](C)(=O)[O-])CC2)c(N2CCOCC2)n1`, the solubility (kinetic) was determined as 50.2 µg/mL (≈ 103 µM). Take `Nc1nc2c(s1)C(c1cccc(Cl)c1Cl)CC(=O)N2` (stereo not drawn): the solubility (kinetic) was < 1 µg/mL.

Take `O=C(Nc1ncc(Cc2ccc(C(F)(F)F)cc2)s1)c1cnc(-c2ccccc2)s1`: the solubility (kinetic) was < 1 µg/mL. Compound `O=C(Nc1ccc2oc(-c3cccnc3)nc2c1)c1ccc(-c2cccc(Cl)c2)o1` registered a solubility (kinetic) of 1.1 µg/mL (≈ 2.65 µM).

Take `CC(C)n1cc(-c2ccc3c(c2)N(C)CC3)c2c(NS(=O)(=O)c3ccn(C)n3)ccnc21`: the kinetic solubility stood at 36.7 µg/mL (≈ 81.5 µM).

Regarding `Cc1nnc2c3ccccc3nc(N3CCN(c4ccccc4)CC3)n12`, the solubility (kinetic) is < 1 µg/mL.

`NC(=O)C1CCN(c2nc(-c3ccccc3F)cs2)CC1` had a kinetic solubility of 4.65 µg/mL (≈ 15.2 µM). With `CN(C)c1cccc(-c2nnc(N3CCC(C(N)=O)CC3)s2)c1`, the kinetic solubility is > 49 µg/mL. As for `COc1ccc(C(=O)NC2CCCc3c2[nH]c2c(Cl)cccc32)cc1OC` (stereo not drawn), the figure is 1.14 µg/mL (≈ 2.95 µM); as for `CNc1oc(-c2cccc(-c3ccccc3)c2)nc1C#N`, < 1 µg/mL. As for `COCCN1CCNc2nc(COc3ccc(C(C)C)cc3)n(Cc3ccccc3)c2C1=O`, the figure is < 1 µg/mL. Regarding `Cc1cc(-c2nnc3n2CCCCC3)c(C)n1-c1ccc([N+](=O)[O-])cc1`, the kinetic solubility is > 52 µg/mL. As to `Cn1c(CN2CCCC2)nc2cc(NC(=O)COc3ccc(Cl)cc3)ccc21`, the solubility (kinetic) is > 59 µg/mL. In the case of `Oc1cccc2nc3ccccc3nc12`, the kinetic solubility was > 29 µg/mL. For the compound `Fc1cc(Nc2nc(-c3ccncc3)nc3ccccc23)ccc1C(F)(F)F`, the kinetic solubility is < 1 µg/mL. As for `Cc1noc([C@@H]2CN(C(=O)c3nn(C)c4ccccc34)C[C@H]2CO)n1`, the figure is > 100 µg/mL; as for `Cc1ccc(S(=O)(=O)Nc2cccc(C(=O)Nc3nc(-c4ccccc4)cs3)c2Cl)cc1`, < 1 µg/mL. In the case of `COc1cccc(-c2noc(Nc3ccc4c(c3)OCCO4)n2)c1`, the kinetic solubility is < 1 µg/mL. Next, `Cc1cc(C)nc(NC(=S)N2CCN(c3cccc(C(F)(F)F)n3)CC2)c1`: 20.6 µg/mL (≈ 52 µM); `Cc1cccc(NCc2ccc(O)c3ncccc23)c1`: < 1 µg/mL; `O=C(Nc1nc(-c2ccc(F)cc2)cs1)c1ccncc1NS(=O)(=O)c1ccccc1Cl`: < 1 µg/mL.

With `COc1ccc(Nc2nc(-c3cccc(OC)c3)no2)cc1`, the solubility (kinetic) is < 1 µg/mL. Regarding `Cc1ccc(NS(=O)(=O)c2ccccc2C(=O)Nc2nc(-c3ccccc3)cs2)cc1`, the kinetic solubility is < 1 µg/mL.

With `Cc1ccc(O)c(-c2cc(-c3ccccc3C)[nH]n2)c1`, the kinetic solubility is < 1 µg/mL.

On to `Fc1cccc(F)c1Nc1nc(-c2ccncc2)nc2ccccc12`, for which the kinetic solubility is < 1 µg/mL. In the case of `CN(C)S(=O)(=O)c1cccc(NC(=O)c2ccc[nH]2)c1`, the kinetic solubility was 13.3 µg/mL (≈ 45.2 µM). `CN1CCCC1CCOC(c1cc2nccc(C(=O)O)c2[nH]1)c1ccccc1Cl` (stereo not drawn): the kinetic solubility is > 61 µg/mL. `CCc1ccc(NC(=O)c2[nH]c(C)c(C(C)=O)c2C)cc1S(=O)(=O)Nc1cccc(C#N)c1` came in with a solubility (kinetic) of 1.67 µg/mL (≈ 3.59 µM). With `COc1ccc(-n2nc(C3CCCN(C(=O)Cc4ccc(F)cc4)C3)[nH]c2=O)cc1` (stereo not drawn), the kinetic solubility is > 61 µg/mL. As to `O=[S+]([O-])(Nc1ccc(N2CCNCC2)cc1)c1ccc(NCc2cccc(Cl)c2O)cc1`, the kinetic solubility came out at 52.4 µg/mL (≈ 111 µM). In the case of `COc1cccc(Cn2c(=O)n(-c3cccc(Cl)c3C)c(=O)c3c4c(sc32)CN(C(C)=O)CC4)c1`, the solubility (kinetic) was < 1 µg/mL. Next, `CCCc1cc(=O)oc2c3c(c4c(c12)OC(C)(C)C=C4)OC(C)C(C)C3O` (stereo not drawn): < 1 µg/mL; `CN(Cc1ccccc1)C(=O)c1ccc(S(=O)(=O)Nc2ccccc2)cc1`: 22.5 µg/mL (≈ 59.2 µM); `COc1ccc2[nH]c(=O)c(-c3noc(-c4cccs4)n3)cc2c1`: < 1 µg/mL. Regarding `O=C(NCc1cccnc1)c1nc(-c2ccc(Cl)nc2)c2cnccn12`, the solubility (kinetic) stood at 4.69 µg/mL (≈ 12.9 µM). Compound `NC(=O)C1CCN(c2ncc(Br)s2)CC1` registered a solubility (kinetic) of 32.3 µg/mL (≈ 111 µM). Regarding `Cc1ccnc(NC(=S)N2CCN(c3ccc(N)cc3)CC2)c1`, the solubility (kinetic) was > 48 µg/mL. On to `CN(C(=O)CSc1nc2c(c(=O)[nH]1)CCCC2)c1ccccc1`, for which the kinetic solubility was > 49 µg/mL. Consider `CCOc1cc2c(cc1OCC)CN(C(=O)c1cc3sccc3n1Cc1ccccc1)CC2`, for which the kinetic solubility was < 1 µg/mL.

As for `Cc1ccnc(NC(=S)N2CC[C@@H](Nc3cccc(C(F)(F)F)c3)C2)c1`, the kinetic solubility came to 7.92 µg/mL (≈ 20.8 µM). In turn, `Cc1ccc(-n2nc3c(=O)n(CCCC(=O)NCc4ccccc4F)nc(C)c3c2C)cc1` came in with a kinetic solubility of 4.17 µg/mL (≈ 9.32 µM). Compound `CN1CC=C(c2nc(Nc3ccc(F)c(F)c3)c3ccccc3n2)CC1` displayed a kinetic solubility of 33.8 µg/mL (≈ 96 µM).

Take `CC1CCc2cc(F)ccc2N1C(=O)CSc1nnc2c(n1)[nH]c1ccccc12` (stereo not drawn): the kinetic solubility is < 1 µg/mL. As for `c1ccc(-c2nnc3n2NC(c2ccc4c(c2)OCO4)S3)cc1` (stereo not drawn), the figure is 1.56 µg/mL (≈ 4.82 µM).
